Legend:
[1] = Cytotoxicity against human Jurkat T cells after 72 hrs; type: cell-based
[2] = Cytotoxicity against human MDA-MB-231 cells after 72 hrs; type: cell-based
HT-29 = experiment: Cytotoxicity against human HT29 cells after 72 hrs; type: cell-based; settings: ht-29, 72 h
[3] = Cytotoxicity against human HL60 cells after 72 hrs; type: cell-based, HL-60
[4] = Cytotoxicity against human A549 cells after 72 hrs; type: cell-based
HeLa = experiment: Antimitotic activity against human HeLa cells after 18 hrs; type: functional, cell-based
Jurkat = experiment: Cytotoxicity against human Jurkat T cells at <100 uM after 72 hrs; type: cell-based
HL-60 = experiment: Cytotoxicity against human HL60 cells at <100 uM after 72 hrs; type: cell-based; settings: hl-60, 72 h

SMILES | GI50 at 72 h [1] [µM] | GI50 at 72 h [2] [µM] | GI (HT-29) [µM] | GI50 at 72 h [3] [µM] | GI50 at 72 h [4] [µM] | IC50 (HeLa) [µM] | Activity (Jurkat) | Activity (HL-60)
COc1ccc(CCNCC(=O)N(CCC(c2ccccc2)c2ccccc2)CC(N)=O)cc1 | 27.3 | 9.36 | 9.14 | 29.1 | 9.36 | – | – | –
COc1ccc(CCN(CC(=O)N(CCC(c2ccccc2)c2ccccc2)CC(N)=O)C(=O)CNCCC(c2ccccc2)c2ccccc2)cc1 | 6.68 | 1.32 | 1.41 | 21.8 | 1.41 | – | – | –
O=C(CN(CCC(c1ccccc1)c1ccccc1)C(=O)CNCC1CCCO1)NCCC(c1ccccc1)c1ccccc1 (stereo unspecified) | 5.83 | 1.06 | 0.94 | 23 | 1.06 | – | – | –
COc1ccc(CCNCC(=O)NCCC(c2ccccc2)c2ccccc2)cc1 | 18 | 2.73 | 1.89 | 10.6 | 3.73 | 0.994 | – | –
NC(=O)CN(CCC(c1ccccc1)c1ccccc1)C(=O)CNCCC(c1ccccc1)c1ccccc1 | 10.5 | 3.08 | 1.64 | 13.2 | 3.08 | 0.154 | – | –
COc1ccc(CCN(CC(=O)NCCC(c2ccccc2)c2ccccc2)C(=O)CNCCC(c2ccccc2)c2ccccc2)cc1 | 3.75 | 1.02 | 1.04 | 2.94 | 1.02 | 0.025 | – | –
COc1ccc(CCN(CC(N)=O)C(=O)CNCCC(c2ccccc2)c2ccccc2)cc1 | 33.9 | 19.1 | 9.14 | 31.1 | – | – | – | –
NC(=O)CN(CCC(c1ccccc1)c1ccccc1)C(=O)CNCC1CCCO1 (stereo unspecified) | – | – | – | – | – | – | Not Active | Not Active
COc1ccc(CCN2CC(=O)N(CCC(c3ccccc3)c3ccccc3)CC2=O)cc1 | – | – | – | – | – | – | Not Active | Not Active
NC(=O)CN(CCC(c1ccccc1)c1ccccc1)C(=O)CN(CCC(c1ccccc1)c1ccccc1)C(=O)CNCC1CCCO1 (stereo unspecified) [TRIMER I] | 21.3 | 2.72 | 2.27 | 3.55 | 2.57 | – | – | –
NC(=O)CN(CC1CCCO1)C(=O)CNCCC(c1ccccc1)c1ccccc1 (stereo unspecified) | – | – | – | – | – | – | Not Active | Not Active
O=C(CNCCC(c1ccccc1)c1ccccc1)NCCC(c1ccccc1)c1ccccc1 | 10.2 | 3.46 | 3.03 | 12.6 | 3.46 | 0.035 | – | –
O=C1CN(CC2CCCO2)C(=O)CN1CCC(c1ccccc1)c1ccccc1 (stereo unspecified) | – | – | – | – | – | – | Not Active | Not Active

— ChEMBL document CHEMBL1139856, “Smallest peptoids with antiproliferative activity on human neoplastic cells” (J Med Chem, 2007)
